Source: ChEMBL document CHEMBL1201862, “PubChem BioAssay data set” (2004)
Values joined by “and” are separate entries in the source; they are usually repeats but may differ in a detail not shown here. Equal values may be shown once. Active and inactive are the calls of the source. Cut-off read from the data, not from the text of the source, for most assays here: actives have a measured IC50 and inactives only a lower limit.

What was measured:
[1] = target: Cytochrome P450 3A4 (Homo sapiens, UniProt P08684);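 note: CYP3A4 tested as one member of a cytochrome P450 panel screen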
[2] = target: T1, Leucine aminopeptidase (Plasmodium falciparum 3D7, UniProt Q8IL11); experiment: P. falciparum M17LAP inhibitors, primary screen, biochemical, fluorogenic H-Leu-NHMec substrate, 1536-well (AID 1619); format: functional
T1 sequence (Q8IL11 whole entry): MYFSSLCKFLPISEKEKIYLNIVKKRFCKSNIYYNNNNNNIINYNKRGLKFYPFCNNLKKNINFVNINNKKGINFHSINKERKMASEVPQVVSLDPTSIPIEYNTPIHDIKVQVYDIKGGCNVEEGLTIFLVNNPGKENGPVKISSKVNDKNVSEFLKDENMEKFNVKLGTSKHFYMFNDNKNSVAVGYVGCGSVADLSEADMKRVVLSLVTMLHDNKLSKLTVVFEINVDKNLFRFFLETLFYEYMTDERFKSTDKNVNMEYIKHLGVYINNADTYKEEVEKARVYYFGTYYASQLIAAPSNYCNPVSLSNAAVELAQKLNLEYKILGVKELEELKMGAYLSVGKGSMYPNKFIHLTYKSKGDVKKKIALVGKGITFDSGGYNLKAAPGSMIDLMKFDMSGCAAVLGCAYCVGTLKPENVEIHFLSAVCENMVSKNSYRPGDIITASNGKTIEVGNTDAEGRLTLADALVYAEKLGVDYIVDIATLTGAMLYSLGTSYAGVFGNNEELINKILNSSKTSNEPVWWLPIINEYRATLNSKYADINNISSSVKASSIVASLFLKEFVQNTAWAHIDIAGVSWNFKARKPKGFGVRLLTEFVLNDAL

[3] = target: T2, Tyrosine-protein phosphatase non-receptor type 7 (Homo sapiens, UniProt P35236); format: functional
T2 sequence (P35236 whole entry): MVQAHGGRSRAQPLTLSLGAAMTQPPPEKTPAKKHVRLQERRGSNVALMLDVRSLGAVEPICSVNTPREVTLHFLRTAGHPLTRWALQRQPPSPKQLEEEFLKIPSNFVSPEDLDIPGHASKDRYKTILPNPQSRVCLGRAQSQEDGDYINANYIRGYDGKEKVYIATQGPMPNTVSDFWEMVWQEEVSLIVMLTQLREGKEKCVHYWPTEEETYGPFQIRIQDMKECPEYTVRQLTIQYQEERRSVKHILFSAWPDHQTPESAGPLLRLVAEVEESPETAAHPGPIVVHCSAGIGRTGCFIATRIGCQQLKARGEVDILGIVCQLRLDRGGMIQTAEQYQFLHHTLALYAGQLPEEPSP

[4] = target: T3, Tyrosine-protein phosphatase non-receptor type 22 (Homo sapiens, UniProt Q9Y2R2); format: functional
T3 sequence (Q9Y2R2 whole entry): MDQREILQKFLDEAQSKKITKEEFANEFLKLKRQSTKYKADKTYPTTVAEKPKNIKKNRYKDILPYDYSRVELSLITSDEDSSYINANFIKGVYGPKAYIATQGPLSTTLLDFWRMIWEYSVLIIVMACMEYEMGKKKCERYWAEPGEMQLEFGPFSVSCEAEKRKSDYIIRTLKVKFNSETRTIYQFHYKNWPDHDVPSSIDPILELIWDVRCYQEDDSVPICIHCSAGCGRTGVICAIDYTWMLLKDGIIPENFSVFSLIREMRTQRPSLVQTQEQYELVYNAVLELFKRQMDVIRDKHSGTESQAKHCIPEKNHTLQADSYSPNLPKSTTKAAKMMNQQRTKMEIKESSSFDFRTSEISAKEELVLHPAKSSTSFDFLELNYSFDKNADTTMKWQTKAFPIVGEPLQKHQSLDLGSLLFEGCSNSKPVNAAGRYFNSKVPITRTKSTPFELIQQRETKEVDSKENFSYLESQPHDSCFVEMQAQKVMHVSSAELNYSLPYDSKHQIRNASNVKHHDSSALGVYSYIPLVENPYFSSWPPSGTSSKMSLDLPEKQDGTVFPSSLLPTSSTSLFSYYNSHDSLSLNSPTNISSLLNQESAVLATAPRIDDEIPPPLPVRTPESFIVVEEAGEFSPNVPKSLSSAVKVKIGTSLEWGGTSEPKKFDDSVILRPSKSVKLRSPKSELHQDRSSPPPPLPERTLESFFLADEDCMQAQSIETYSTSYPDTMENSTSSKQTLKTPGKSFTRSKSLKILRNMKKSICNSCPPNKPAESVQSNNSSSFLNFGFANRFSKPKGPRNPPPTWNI

[5] = target: T3, Tyrosine-protein phosphatase non-receptor type 22; format: functional; remark: listed apart in the source
[6] = tested on: HEK293; experiment: inhibition of NOD1-driven NF-kB reporter – cell-based, luminescence, uHTS, primary screen (AID 1578); format: functional; conditions: Homo sapiens
[7] = tested on: Streptococcus sp. 'group A'; experiment: Streptococcus pyogenes SK(-)GAS viability under kanamycin – luminescence, BacTiterGlo, confirmation, counter-screen for streptokinase expression inhibitor project, dose response (AID 1900); format: functional, organism-based
[8] = tested on: HEK293; experiment: cells; format: functional, cell-based; conditions: Homo sapiens
[9] = target: T4, Streptokinase A (Streptococcus pyogenes serotype M1, UniProt P10520); experiment: viability-normalized secreted streptokinase activity reduction – plasminogen activation absorbance, OD405, dose response (AID 1914); format: functional, Streptococcus pyogenes M1 GAS;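 note: secreted streptokinase activity via plasminogen activation per viability signal from cell pellet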
T4 sequence (P10520 whole entry): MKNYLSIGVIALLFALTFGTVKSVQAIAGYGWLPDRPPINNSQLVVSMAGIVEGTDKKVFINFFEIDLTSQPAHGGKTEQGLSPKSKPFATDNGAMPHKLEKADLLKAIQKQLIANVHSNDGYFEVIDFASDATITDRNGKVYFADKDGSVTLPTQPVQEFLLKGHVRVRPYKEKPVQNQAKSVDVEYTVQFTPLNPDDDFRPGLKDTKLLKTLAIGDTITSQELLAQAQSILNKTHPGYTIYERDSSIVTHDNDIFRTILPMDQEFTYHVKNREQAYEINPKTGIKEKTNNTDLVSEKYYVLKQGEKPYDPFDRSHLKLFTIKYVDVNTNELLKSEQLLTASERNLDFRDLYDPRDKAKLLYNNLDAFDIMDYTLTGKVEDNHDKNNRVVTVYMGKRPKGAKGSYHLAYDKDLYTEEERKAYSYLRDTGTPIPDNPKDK

[10] = tested on: HEK293; experiment: cells; format: functional, cell-based; conditions: Homo sapiens; remark: listed apart in the source
[11] = tested on: HEK293; experiment: NOD2 signaling inhibitors in MDP-stimulated cells, cell-based, uHTS, luminescence (AID 2001); format: functional; conditions: Homo sapiens
[12] = tested on: Streptococcus; experiment: GAS UMAA2166 growth inhibition – luminescence, BacTiterGlo, counter-screen for streptokinase expression inhibitor project, dose response (AID 1915); format: functional, organism-based;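 note: potency for reduction of bacterial viability or growth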
[13] = target: Tumor necrosis factor (Homo sapiens, UniProt P01375); experiment: analog potency on TNFa NF-kB signaling – cell-based, revised, SAR follow-up (AID 2337); format: functional
[14] = target: T5, Nucleotide-binding oligomerization domain-containing protein 1 (Homo sapiens, UniProt Q9Y239); experiment: blockers of NOD1 pathway activity – revised, SAR follow-up (AID 2333); format: functional
T5 sequence (Q9Y239 whole entry): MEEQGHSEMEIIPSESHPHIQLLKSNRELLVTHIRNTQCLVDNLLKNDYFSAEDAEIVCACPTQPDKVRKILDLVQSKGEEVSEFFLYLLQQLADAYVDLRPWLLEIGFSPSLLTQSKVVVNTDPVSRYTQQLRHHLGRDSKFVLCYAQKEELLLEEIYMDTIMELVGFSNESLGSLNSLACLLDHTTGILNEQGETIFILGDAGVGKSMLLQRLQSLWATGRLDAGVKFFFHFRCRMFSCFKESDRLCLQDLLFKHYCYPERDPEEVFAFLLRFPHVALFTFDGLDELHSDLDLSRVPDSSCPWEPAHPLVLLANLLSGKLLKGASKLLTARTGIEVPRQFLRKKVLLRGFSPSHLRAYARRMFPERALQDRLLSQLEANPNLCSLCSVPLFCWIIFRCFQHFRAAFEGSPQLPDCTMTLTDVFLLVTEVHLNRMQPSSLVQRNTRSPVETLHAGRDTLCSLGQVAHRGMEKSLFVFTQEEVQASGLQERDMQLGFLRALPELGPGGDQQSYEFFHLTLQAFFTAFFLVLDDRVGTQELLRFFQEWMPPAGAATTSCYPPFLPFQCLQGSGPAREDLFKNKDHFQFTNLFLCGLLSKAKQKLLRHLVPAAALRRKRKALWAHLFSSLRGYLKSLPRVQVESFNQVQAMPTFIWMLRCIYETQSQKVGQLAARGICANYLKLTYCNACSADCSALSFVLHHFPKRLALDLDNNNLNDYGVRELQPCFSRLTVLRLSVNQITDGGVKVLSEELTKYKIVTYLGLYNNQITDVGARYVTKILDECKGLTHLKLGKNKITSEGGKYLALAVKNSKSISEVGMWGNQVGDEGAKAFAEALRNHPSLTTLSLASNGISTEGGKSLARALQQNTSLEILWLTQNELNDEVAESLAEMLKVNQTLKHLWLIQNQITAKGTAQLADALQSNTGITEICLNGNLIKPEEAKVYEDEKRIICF

[15] = tested on: HEK293; experiment: cells; conditions: Homo sapiens
[16] = target: T6, Mannose-6-phosphate isomerase (Homo sapiens, UniProt P34949); experiment: phosphomannose isomerase inhibition – biochemical, fluorescence intensity, confirmation (AID 1535)
T6 sequence (P34949 whole entry): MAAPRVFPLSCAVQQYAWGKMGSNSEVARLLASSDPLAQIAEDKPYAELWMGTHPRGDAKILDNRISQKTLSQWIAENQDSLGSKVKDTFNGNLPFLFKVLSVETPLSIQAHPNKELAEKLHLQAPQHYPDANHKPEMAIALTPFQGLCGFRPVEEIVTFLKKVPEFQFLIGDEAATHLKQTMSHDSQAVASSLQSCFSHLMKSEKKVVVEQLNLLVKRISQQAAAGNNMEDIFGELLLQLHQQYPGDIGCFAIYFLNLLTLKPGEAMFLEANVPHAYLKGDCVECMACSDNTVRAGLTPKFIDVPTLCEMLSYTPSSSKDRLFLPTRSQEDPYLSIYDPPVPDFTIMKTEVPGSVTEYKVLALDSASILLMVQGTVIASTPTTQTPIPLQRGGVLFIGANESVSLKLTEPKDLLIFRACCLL

[17] = target: T7, Phosphomannomutase 2 (Homo sapiens, UniProt O15305); experiment: Counter screen SAR assay for PMM2 inhibitors via a fluorescence intensity assay. [Related pubchem assays (depositor defined):AID1545, AID1574]
T7 sequence (O15305 whole entry): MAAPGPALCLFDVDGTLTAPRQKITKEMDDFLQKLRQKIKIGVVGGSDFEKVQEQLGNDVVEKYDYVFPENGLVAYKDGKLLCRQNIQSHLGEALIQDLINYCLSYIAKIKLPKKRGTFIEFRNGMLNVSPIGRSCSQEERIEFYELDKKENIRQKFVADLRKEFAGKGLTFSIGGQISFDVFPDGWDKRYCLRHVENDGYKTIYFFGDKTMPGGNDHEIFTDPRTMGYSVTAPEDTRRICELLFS

Sequence of Cytochrome P450 3A4 (P08684 whole entry): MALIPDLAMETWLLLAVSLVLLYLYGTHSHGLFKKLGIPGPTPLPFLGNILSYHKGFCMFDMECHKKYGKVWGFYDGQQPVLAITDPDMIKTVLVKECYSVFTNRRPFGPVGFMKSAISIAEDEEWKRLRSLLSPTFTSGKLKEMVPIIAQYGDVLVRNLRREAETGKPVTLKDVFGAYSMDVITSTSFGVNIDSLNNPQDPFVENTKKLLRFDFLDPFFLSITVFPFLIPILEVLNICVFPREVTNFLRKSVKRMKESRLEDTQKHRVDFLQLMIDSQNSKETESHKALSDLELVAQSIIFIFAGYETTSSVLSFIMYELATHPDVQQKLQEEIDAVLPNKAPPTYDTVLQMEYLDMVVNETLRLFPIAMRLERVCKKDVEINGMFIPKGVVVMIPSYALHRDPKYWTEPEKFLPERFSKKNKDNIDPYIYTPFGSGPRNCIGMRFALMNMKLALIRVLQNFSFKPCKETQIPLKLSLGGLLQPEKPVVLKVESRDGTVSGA
Sequence of Tumor necrosis factor (P01375 whole entry, the tested form may be a part): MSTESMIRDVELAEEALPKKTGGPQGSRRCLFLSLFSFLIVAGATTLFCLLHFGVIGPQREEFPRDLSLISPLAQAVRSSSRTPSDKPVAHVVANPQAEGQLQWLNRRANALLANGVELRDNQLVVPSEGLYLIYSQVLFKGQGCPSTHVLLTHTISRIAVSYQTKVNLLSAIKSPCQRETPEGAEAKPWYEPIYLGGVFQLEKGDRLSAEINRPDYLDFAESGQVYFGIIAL

CCOC(=O)N1CCN(c2nc(-c3cccs3)cc(C(F)(F)F)n2)CC1
AC50 [1]: inconclusive

O=C(O)C1CCCCC1C(=O)Nc1ccc(F)c(F)c1 (configuration not stated)
IC50 [2]: 37.8 µM (active) | IC50 [3]: > 79.4 µM (inactive) | IC50 [4]: > 79.4 µM (inactive) | IC50 [5]: > 79.4 µM (inactive)

O=C(CNC(=O)c1ccc(Cl)cc1)NCC(F)(F)F
IC50 [3]: > 79.4 µM (inactive) | IC50 [4]: > 79.4 µM (inactive) | IC50 [5]: > 79.4 µM (inactive)

CCSc1nnc(NC(=O)C2CCCCC2C(=O)O)s1 (configuration not stated)
IC50 [3]: > 79.4 µM (inactive) | IC50 [4]: > 79.4 µM (inactive) | IC50 [5]: > 79.4 µM (inactive)

Cc1ccccc1/C=C1\Sc2ccc(C(=O)N3CCN(c4ccccn4)CC3)cc2N(C)C1=O
EC50 [6]: 8.18 µM (active) | EC50 [7]: 4.49 µM (active) | IC50 [8]: 5.97 µM (active) | EC50 [9]: > 150 µM (not active) | IC50 [10]: 7.21 µM (active) | IC50 [11]: 6.78 µM (active) | EC50 [12]: 16.6 µM (active) | IC50 [13]: 6.22 µM (active) | IC50 [14]: 4.28 µM (active) | IC50 [15]: 10.8 µM (active)

NC(=O)CN1CCOCCOCCOCCOCCOCC1
AC50 [1]: inconclusive

COCC(=O)N1CCC2(CC1)CCN(c1ccc(-c3ccccc3)cc1)CC2
AC50 [1]: inconclusive

Clc1nss/c1=N\c1nccs1
IC50 [16]: 32.9 µM (active) and 4.34 µM (active) | IC50 [17]: > 100 µM (inactive)

O=c1c2ccccc2sn1-c1nc2ccc(SC(F)F)cc2s1
IC50 [16]: > 50 µM (inactive) | IC50 [17]: > 100 µM (inactive)

O=c1c2ccccc2sn1-c1ncc(Br)s1
IC50 [16]: > 50 µM (inactive) | IC50 [17]: > 100 µM (inactive)

COc1ccc(C(=O)Nc2sc3c(c2C(=O)O)CC(C)(C)OC3)cc1OC
IC50 [13]: > 20 µM (inactive) | IC50 [14]: 15.1 µM (active) | IC50 [15]: > 20 µM (inactive)
